“Also recorded” adds a separate entry of the source.

The values below come from patent US9221861B2, “Multivalent [beta]-1-2-linked mannose oligosaccharides as immunostimulatory compounds and uses thereof” (ABO AKADEMI UNIVERSITY, priority 2011, dated 2015).

Type in all cases: cell-based, human
Test [1] concerns allergen (birch) stimulated PBMC culture. The test is described as follows: Effect on allergen (birch) induced IL-5 production in PBMC culture (Example 2). Conditions: PBMC of four birch allergic rhinitis patients; birch extract 50 µg/ml; CM-C8-2010 20 µg/ml; 72 hours (FIG. 6). The method, then: (§1) The human PBMC were isolated from heparinized blood samples with Ficoll (Ficoll-Paque, Amersham Pharmacia Biotech, Sweden) density gradient centrifugation. The PBMC were washed twice with Hanks' balanced salt solution (HBSS) and suspended in RPMI medium supplemented 5% autologous serum, 2 mM L-glutamine (Fluka Biochemica, Germany) and 100 µg/ml gentamycin (Biological Industries, Israel). The cell suspension was diluted in the RPMI-based culture medium to 10^6 cells/ml and applied on 48-well culture plates (Costar, Cambridge, Mass., USA).
Trivalent acetylated monosaccharide coded CM-C4-2011 was used as a negative control. The PBMC were isolated and cultured as described above. Birch whole allergen extract was used at a concentration of 50 µg/ml and CM-C8-2010 at a concentration of 20 µg/ml. The cultures were incubated for 72 hours. Following stimulation, the production of IL-5 was measured with LINCOplex™-kits using Luminex100™ instrumentation.

Test [2] has the same test system. The test is described as follows: Comparison with prior art adjuvants in suppression of birch allergen-induced IL-4, IL-5 and IL-13 in PBMC (Example 3). Conditions: 24 hours; for Mean (SD) percentage of Birch induced cytokine response, IL-5: 15 subjects; for Mean (SD) percentage of Birch induced cytokine response, IL-13: 17 subjects; for Mean (SD) percentage of Birch induced cytokine response, IL-4: 19 subjects. The method, then:
as §1
The effect of synthetic molecule according to the compound of formula (IV) of the invention coded CM-C8-2010 on the production of IL-4, IL-5 and IL-13, the main Th2-type cytokines promoting allergic inflammation, was studied in an allergen (birch) stimulated PBMC culture of 26 birch allergic patients with allergic rhinitis. The effect was compared to that of 3-deacylated monophosphoryl lipid A (MPL), the non-toxic derivative of lipopolysaccharide of Salmonella minnesota (LPS), and immunostimulatory bacterial DNA sequence (CpG-ODN-1). These molecules have been clinically successfully tested as adjuvants in allergen immunotherapy. Another bacterial DNA sequence (CpG-ODN-2) without immunostimulatory activity was used as a negative control. The PBMC were collected during a strong birch pollen season, were isolated and cultured as described above. Birch whole allergen extract was used at a concentration of 50 µg/ml and CM-C8-2010 at concentrations 200 and 20 µg/ml. CpG-ODN-1 and CpG-ODN-2 were used at a concentration 5 µg/ml and MPL at a concentration 10 µg/ml based on earlier published experiments. The cultures were incubated for 24 hours. Following stimulation, the productions of IL-4, IL-5 and IL-13 were measured with LINCOplex™-kits using Luminex100™ instrumentation. For analysis only the cultures with strong induced cytokine responses were included.

In test [3] the test system is peripheral blood mononuclear cells (PBMC). Nature of the test: Induction of cytokines by synthetic β-1,2-linked mannooligosaccharide compounds in PBMC (Example 1). Conditions: PBMC of three atopic subjects, 72 h, 20 and 200 μg/ml (FIG. 5), LINCOplex/Luminex. The procedure:
as §1
The synthetic oligosaccharides were tested for the production of cytokines IL-4, IL-5, IL-10 and IFN-γ, in peripheral blood mononuclear cells (PBMC) samples of three atopic subjects. The PBMC were stimulated by adding solubilized oligosaccharides in cell culture suspension. The synthetic polyvalent β-1,2-linked oligosaccharides used in this example are a molecule according to the compound of formula (IV) of the invention (coded CM-C8-2010), trivalent monosaccharide (R═H) coded CM-C4-2010 and pentavalent disaccharide (R═O) coded CM-C7-2010. The cytokine responses from PBMC were detected 72 h after beginning of the stimulation by measuring cytokine secretion with high-sensitivity human cytokine LINCOplex™-kits (LINCO Research, St. Charles, Mo., USA) using Luminex^100™ instrumentation. The assays were performed in accordance with the manufacturer's protocol by employing Luminex technology.

For test [4] the test system is unchanged. The test is described as follows: Induction of cytokines by synthetic oligosaccharide RP-I-82 in PBMC (Example 4). Particulars: PBMC of three subjects, 24 hours. The procedure: as §1
The synthetic oligosaccharide coded RP-I-82 was tested for the production of cytokines IL-4, IL-5, IL-10, IL-13, TNF and IFN-γ, in peripheral blood mononuclear cells (PBMC) samples of three subjects. The PBMC were stimulated by adding solubilized oligosaccharide in cell culture suspension. The synthetic oligovalent 3-1,2-linked oligosaccharide used in this example was a molecule according to the compound of formula (IV) of the invention (coded RP-I-82). A positive control was acid hydrolyzed Candida albicans mannan (CAM). The cytokine responses from PBMC were detected 24 hours after beginning of the stimulation by measuring cytokine secretion with high-sensitivity human cytokine LINCOplex™-kits (LINCO Research, St. Charles, Mo., USA) using Luminex^100™ instrumentation. The assays were performed in accordance with the manufacturer's protocol by employing Luminex technology.

Where [5] appears, read: PBMC of birch allergic patients.

Turning to `CC(=O)OCC1O[C@@H](OC2C(OC(C)=O)[C@H](OC(C)=O)C(COC(C)=O)O[C@@H]2OCCn2cc(COCC(COCc3cn(CCO[C@H]4OC(COC(C)=O)[C@@H](OC(C)=O)C(OC(C)=O)C4O[C@@H]4OC(COC(C)=O)[C@@H](OC(C)=O)C(OC(C)=O)C4OC(C)=O)nn3)OCc3cn(CCO[C@H]4OC(COC(C)=O)[C@@H](OC(C)=O)C(OC(C)=O)C4O[C@@H]4OC(COC(C)=O)[C@@H](OC(C)=O)C(OC(C)=O)C4OC(C)=O)nn3)nn2)C(OC(C)=O)C(OC(C)=O)[C@@H]1OC(C)=O` (stereo partly drawn) [CM-C8-2010, 1,2,3-tris[1-[(2,3,4,6-tetra-O-acetyl-β-D-mannopyranosyl)-(1→2)-(3,4,6-tri-O-acetyl-α-D-mannopyranosyloxyethyl)]-4-[methyl-1-oxy]triazolyl]propane], the “suppression of birch allergen induced IL-5 response” value in test [1] is “effectively suppressed”. In test [2] (20 μg/ml), the “Mean (SD) percentage of Birch induced cytokine response, IL-5” value is 86.0 (25.9) %; the “Mean (SD) percentage of Birch induced cytokine response, IL-13” value was 85.9 (97.5) %; the “Mean (SD) percentage of Birch induced cytokine response, IL-4” value was 90.8 (22.7) %. Further, in test [2] (200 μg/ml), the “Mean (SD) percentage of Birch induced cytokine response, IL-5” value is recorded as 70.6 (22.6) %; the “Mean (SD) percentage of Birch induced cytokine response, IL-13” value is recorded as 58.5 (48.0) %; the “Mean (SD) percentage of Birch induced cytokine response, IL-4” value was 78.6 (24.3) %. In test [2] (setting [5]), the “suppression of birch allergen induced IL-4 response (in words)” value is “more effectively than CpG-ODN-1 or MPL”, the “suppression of birch allergen induced IL-5 response (in words)” value is “more effectively than CpG-ODN-1 or MPL” and the “suppression of birch allergen induced IL-13 response (in words)” value is “more effectively than CpG-ODN-1 or MPL”. In test [3], the “production of IFN-γ (inducer strength)” value is on record as “strong inducer” and the “production of IL-10 (inducer strength)” value is recorded as “strong inducer”. Further, in test [3] (listed as formula (IV)), the “production of IFN-γ (inducer strength)” value is “most active substance” and the “production of IL-10 (inducer strength)” value was “most active substance”.
For the compound `CC(=O)OC[C@H]1O[C@@H](O[C@@H]2[C@@H](OCCCn3cc(COCC(COCc4cn(CCCO[C@H]5O[C@H](COC(C)=O)[C@@H](OC(C)=O)[C@H](OC(C)=O)[C@@H]5O[C@@H]5O[C@H](COC(C)=O)[C@@H](OC(C)=O)[C@H](OC(C)=O)[C@@H]5OC(C)=O)nn4)OCc4cn(CCCO[C@H]5O[C@H](COC(C)=O)[C@@H](OC(C)=O)[C@H](OC(C)=O)[C@@H]5O[C@@H]5O[C@H](COC(C)=O)[C@@H](OC(C)=O)[C@H](OC(C)=O)[C@@H]5OC(C)=O)nn4)nn3)O[C@H](COC(C)=O)[C@@H](OC(C)=O)[C@@H]2OC(C)=O)[C@@H](OC(C)=O)[C@@H](OC(C)=O)[C@@H]1OC(C)=O` (stereo partly drawn) [RP-I-82, 1,2,3-tris[1-[(2,3,4,6-tetra-O-acetyl-β-D-mannopyranosyl)-(1→2)-(3,4,6-tri-O-acetyl-α-D-mannopyranosyloxypropyl)]-4-[methyl-1-oxy]triazolyl]propane], in test [4] (20 μg/ml), the “Production of cytokines, mean (SD), IFN-γ” value was 10 (15) pg/ml; the “Production of cytokines, mean (SD), IL-4” value is reported as 2.6 (0.8) pg/ml; the “Production of cytokines, mean (SD), IL-5” value was 0.1 (0.2) pg/ml; the “Production of cytokines, mean (SD), IL-10” value is listed as 110 (109) pg/ml. Besides, in test [4] (20 μg/ml), the “Production of cytokines, mean (SD), IL-13” value is listed as 0.6 (0.2) pg/ml and the “Production of cytokines, mean (SD), TNF” value was 52 (26) pg/ml. In test [4] (200 μg/ml), the “Production of cytokines, mean (SD), IFN-γ” value was 18 (25) pg/ml; the “Production of cytokines, mean (SD), IL-4” value is 2.7 (0.2) pg/ml; the “Production of cytokines, mean (SD), IL-5” value is reported as 0.2 (0.2) pg/ml; the “Production of cytokines, mean (SD), IL-10” value was 843 (253) pg/ml. Further, in test [4] (200 μg/ml), the “Production of cytokines, mean (SD), IL-13” value is on record as 0.5 (0.0) pg/ml and the “Production of cytokines, mean (SD), TNF” value is 295 (146) pg/ml. Besides, in test [4], the “IFN-γ production, inducer strength (in words)” value is “moderate inducer”; the “IL-4 production (in words)” value was “not seen at all”; the “IL-5 production (in words)” value is reported as “not seen at all”; the “IL-10 production, inducer strength (in words)” value is recorded as “strong inducer; also recorded: considerably higher than for the control”. In test [4], the “IL-13 production (in words)” value is on record as “not seen at all”; the “TNF production, inducer strength (in words)” value was “strong inducer; also recorded: considerably higher than for the control”; the “pattern of cytokine induction in comparison to the blank sample (no stimulation)” value is “selective induction”.
